Measurements as given in US20240115654A1, “INTRAVENOUS ADMINISTRATION OF ENGINEERED ANTIMICROBIAL AMPHIPHILIC PEPTIDES” (priority 2021, published 2024).
Values after ≈ are worked out from the molar mass of the structure shown. Where two headings read alike, the source gives them in different places.

Experiments:
[1] = test system: Enterococcus faecalis ATCC 29212 (VSE; QC); conditions: E. faecalis ATCC 29212; established CLSI QC range; cited from earlier work
[2] = test system: Escherichia coli ATCC 25922 (QC); conditions: E. coli ATCC 25922; established CLSI QC range; cited from earlier work
[3] = test system: Pseudomonas aeruginosa ATCC 27853 (non-MDR; QC); conditions: P. aeruginosa ATCC 27853; established CLSI QC range; cited from earlier work
[4] = test system: Klebsiella pneumoniae isolates (n = 101); conditions: Klebsiella pneumoniae (n = 101); CLSI breakpoints, colistin EUCAST
Procedure: (§1) Comparator antibiotics were supplied by Micromyx, and stock solutions were prepared on the first day of testing using solvents recommended by CLSI (1). Stock solutions of all compounds were made at 40× the final testing concentration and stored at −80° C. prior to testing. Information regarding compound source, catalog and lot number, testing concentrations and drug diluent for the comparators and test agent are detailed below in Table 3.
(§2) The test organisms evaluated in this study consisted of clinical isolates from the Micromyx Repository and reference isolates from the American Type Culture Collection (ATCC; Manassas, VA). The clinical isolates were obtained from USA hospitals. Upon initial receipt at Micromyx, the organisms were sub-cultured onto an appropriate agar medium. Following incubation, colonies were harvested from these plates and cell suspensions prepared and frozen at −80° C. with a cryoprotectant. Prior to testing, the isolates were streaked from frozen vials onto Trypticase Soy Agar with 5% sheep blood (Becton Dickenson [BD]; Sparks, MD; Lot Nos. 7173618, 7166759, 7208688, 72144895, 7228505 and Remel Lenexa, KS Lot No. 212574). Plates were incubated at 35° C. overnight.
(§3) Mueller Hinton II broth (MHB II; BD; Lot Nos. 6258541 and 7143896) was used for MIC testing of aerobic organisms.
(§4) MIC values were determined using a broth microdilution procedure described by CLSI (1, 3). Automated liquid handlers (Multidrop 384, Labsystems, Helsinki, Finland; Biomek 2000 and Biomek FX, Beckman Coulter, Fullerton CA) were used to conduct serial dilutions and liquid transfers.
(§5) To prepare the drug mother plates, which would provide the serial drug dilutions for the replicate daughter plates, the wells of columns 2-12 of standard 96-well microdilution plates (Costar 3795) were filled with 150 μl of the designated diluent for each row of drug. The test articles and comparator compounds (300 μl at 40× the highest concentration to be tested) were dispensed into the appropriate wells in column 1. The Biomek 2000 was then used to make 2-fold serial dilutions in the mother plates from column 1 through column 11. The wells of Column 12 contained no drug and served as the organism growth control wells for the assay.
(§6) The daughter plates were loaded with 185 μL per well of MHB II using the Multidrop 384. The daughter plates were completed on the Biomek FX instrument which transferred 5 μL of drug solution from each well of a mother plate to the corresponding well of each daughter plate in a single step. A standardized inoculum of each test organism was prepared per CLSI methods (1). The inoculum for each organism was dispensed into sterile reservoirs divided by length (Beckman Coulter), and the Biomek 2000 was used to inoculate the plates. Daughter plates were placed on the Biomek 2000 work surface in reverse orientation so that inoculation took place from low to high drug concentration.
(§7) Plates were stacked 3-4 high, covered with a lid on the top plate, placed in plastic bags, and incubated at 35° C. for 16 to 20 hrs. Following incubation, the microplates were removed from the incubator and viewed from the bottom using a plate viewer. […] The MIC was read and recorded as the lowest concentration of drug that inhibited visible growth of the organism.
(§8) Clinical breakpoints to determine percent resistance within a given organism group were obtained from CLSI (3), with the exception of colistin for K. pneumoniae, Enterobacter spp., and E. coli, which are only available from EUCAST.

[5] = test system: Escherichia coli isolates (n = 101); conditions: Escherichia coli (n = 101); CLSI breakpoints, colistin EUCAST
Procedure: as §1, §2, §3, §4, §5, §6, §7, §8

[6] = test system: Acinetobacter spp. isolates (n = 104); conditions: Acinetobacter spp. (n = 104); CLSI breakpoints
Procedure: as §1, §2, §3, §4, §5, §6, §7, §8

[7] = test system: Pseudomonas aeruginosa isolates (n = 109); conditions: Pseudomonas aeruginosa (n = 109), CLSI breakpoints
Procedure: as §1, §2, §3, §4, §5, §6, §7, §8

[8] = test system: Enterobacter spp. isolates (Enterobacter aerogenes and E. cloacae, n = 102); experiment: organism not typed
Procedure: as §1, §2, §3, §4, §5, §6, §7, §8

[9] = test system: Staphylococcus aureus ATCC 29213 (MSSA; QC); conditions: S. aureus ATCC 29213; established CLSI QC range; cited from earlier work
[10] = test system: Streptococcus pneumoniae ATCC 49619 (QC); conditions: S. pneumoniae ATCC 49619; established CLSI QC range; cited from earlier work
S. aureus = experiment: Periprosthetic joint infection model, implant biofilm CFU; type: in vivo; conditions: mouse, intraperitoneal; SEQ ID NO:1 0.1-10 mg/kg; compared to untreated control mice, FIG. 16
Procedure: Periprosthetic joint infection was modeled in a mouse by placing an intra-articular K-wire through the medullary canal of the proximal femur followed by intra-articular inoculation with S. aureus. Animals were treated systemically with an intraperitoneal delivery of cefazolin, rifampin, or the exemplary peptide of SEQ ID NO: 1. Intraperitoneal delivery was chosen due to technical difficulties associated with intravenous delivery. Implant sonication and proximal femur homogenate were used to quantify viable bacteria.

[11] = test system: P. aeruginosa strains (PAO1 and 2 clinical isolates); experiment: Determination of bacterial resistance, passage at 0.5×MIC with daily MIC; type: cell-based, Pseudomonas aeruginosa; conditions: three P. aeruginosa strains, exposure at 0.5×MIC, FIG. 20
Excerpt: Each antibiotic was compared for their propensity to select for bacterial resistance phenotypes in vitro.

Structure (SMILES)	MIC QC range (in parentheses under the MIC) [1]	MIC QC range (in parentheses under the MIC) [2]	MIC QC range (in parentheses under the MIC) [3]	% R (percent of isolates resistant) [4]	% R (percent of isolates resistant) [5]	% R (percent of isolates resistant) [6]	% R (percent of isolates resistant) [7]	% R (percent of isolates resistant) ([7]; listed as meropenem)	MIC50 [8]	MIC90 [8]	% R (percent of isolates resistant) ([8]; Enterobacter spp. (n = 102), CLSI breakpoints, colistin EUCAST)	MIC ([8]; read-out: Mode (MIC))	MIC QC range (in parentheses under the MIC) [9]	MIC QC range (in parentheses under the MIC) [10]	reduction of implant biofilm CFU burden (sonicate culture) (S. aureus)	time to development of resistance (fold MIC >10) [11]
C[C@@H](O)[C@H]1C(=O)N2C(C(=O)O)=C(S[C@@H]3CN[C@H](C(=O)N(C)C)C3)[C@H](C)[C@H]12 [Meropenem]	(2-8) μg/mL	(0.008-0.06) μg/mL	(0.12-1) μg/mL	50.5%	1%	65.4%	20.2%	20%	0.03 µg/mL (≈ 0.0782 µM)	0.12 µg/mL (≈ 0.313 µM)	3.9%	0.03 µg/mL (≈ 0.0782 µM)	(0.03-0.12) μg/mL	(0.03-0.25) μg/mL	–	–
CO[C@H]1/C=C/O[C@@]2(C)Oc3c(C)c(O)c4c(O)c(c(/C=N/N5CCN(C)CC5)c(O)c4c3C2=O)NC(=O)/C(C)=C\C=C\[C@H](C)[C@H](O)[C@@H](C)[C@@H](O)[C@@H](C)[C@H](OC(C)=O)[C@@H]1C [Rifampin]	–	–	–	–	–	–	–	–	–	–	–	–	–	–	comparable reduction in biofilms sonicate as compared to SEQ ID NO:1	≤ 3 days
